The assay addresses cathepsin S (CTSS) (Homo sapiens, UniProt P25774). Briefly: cell-free enzyme assay with recombinant CTSS. Type of assay: biochemical.

Each structure is given as a SMILES string.

Chain of cathepsin S (CTSS) (P25774 115-331): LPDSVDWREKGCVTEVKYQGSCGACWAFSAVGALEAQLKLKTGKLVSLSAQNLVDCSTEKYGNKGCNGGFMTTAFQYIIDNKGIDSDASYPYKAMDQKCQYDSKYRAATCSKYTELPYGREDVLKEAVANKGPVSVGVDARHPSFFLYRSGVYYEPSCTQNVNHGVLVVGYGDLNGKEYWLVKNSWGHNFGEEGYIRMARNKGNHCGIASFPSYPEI

On to `CN1CCN(C(=O)N[C@@H](Cc2ccccc2)C(=O)N[C@H](/C=C/S(=O)(=O)c2ccccc2)CCc2ccccc2)CC1` [K11777], for which the EC50 came out at 900 nM.

The record behind these values is article PMC11486972 (Hepatology (Baltimore, Md.), 2024).
